One experiment concerns 8226/Dox1V cells. Kind of experiment: Drug resistance and cytotoxicity MTT assay, 8226/Dox1V. Format: cell-based, human. As to the method: FIGS. 13A-13B show dose response of RPMI 8226 and 8226/Dox1V myeloma cells to EPED3 (FIG. 13A) or Dox (FIG. 13B). Cells were incubated for 96 hours with drug concentrations as indicated and analyzed by MTT assays; linear regression analysis was used to determine the IC50 for each drug (EPED3, FIG. 13A; Dox, FIG. 13B) and each cell line (RPMI8226, squares; 8226/Dox1V, circles). Data are presented as the mean of four independent experiments.
The 8226/Dox1V cell line was established by chronic exposure to Dox in presence of P-glycoprotein inhibitor, verapamil and was characterized by reduced expression and activity of topo II (Futscher et al., 1993).
The 8226/Dox1V and its parental line, RPMI 8226, cells were plated in 96-well plates at 10,000 cells/well and incubated with serial dilutions of EPED3 or Dox, as previously described (Landowski et al., 1999). After 96 hours incubation at 37° C., MTT was added to each well at a final concentration of 20 μg/ml and incubated an additional 4 hours. Plates were centrifuged and the media replaced with 0.1 ml DMSO to solublize the formazan complex. Optical density was measured at 540 nm using a Bio-Tek microplate spectrophotometer. IC50 values were calculated by linear regression analysis (Origins® Software Technologies, Inc.) of the log-linear plot for percent survival versus log drug concentration.
In drug resistance studies, the efficacy of EPED3 with 8226/Dox1V cells and the parental line, RPMI 8226 cells was investigated. Both cell lines were treated with either EPED3 or Dox, and the MTT assays were used to assess cell growth. Linear regression analysis of 96-hour dose-response curves was used to compare cytotoxicity of EPED3 in 8226/Dox1V and RPMI 8226 cell lines.
(Tetrazolium assays rely on reduction of a dye to a coloured formazan, in cell work by metabolically active cells.)

The subject of experiment [1] is non myeloma cancer cell lines HEL, HL-60, k562, MEG01, THP1, Hela, G401, Du145, sw480, sw620, saoS2, MG63. Kind of experiment: Overall cell growth inhibition, non myeloma cancer cell lines (CellTiter-Glo). On the set-up: dose or concentration left out as unconfirmed. As to conditions: 5 days. It counts as cell-based. The protocol: Five non myeloma cancer cell lines, HEL (▮), HL-60 (▴), k562 (X), MEG01 ( ? ) and THP1 (▪) were exposed to NSC 388258 over a period of 5 days. The dose was set at 0.2 mM. […] The results obtained from these controls are pooled together in the figure (●).
Seven non myeloma cancer cell lines, Hela (▮), G401 (▴), Du145 (X), sw480, (*) sw620 (▪), SaoS2 (I) and MG63 (−) were exposed to NSC 388258 over a period of 5 days. The dose was set at 0.2 mM. […] The results obtained from these controls are pooled together in the figure (●).
To test the overall cell growth inhibition of NSC 338258, twelve non myeloma cancer cell lines, HEL, HL-60, k562, MEG01, THP1, Hela, G401, Du145, sw480, sw620, saoS2, and MG63, were exposed to the compound in 96 well cell culture plates for a period of five days.
On the technique in general: In ATP-based viability assays light output follows the ATP content of the culture.

Experiment [2] has as its system myeloma cell lines engrafted in SCID mice. It counts as in vivo. As to conditions: 25 and 50 mg/kg/day; Alzet osmotic pumps; 28 days; contemplated. From the text: The present invention also examines novel therapeutic approaches for myeloma using experimental animal models. The anti-myeloma efficacy of 9-(Dimethylaminoethoxy)-ellipticine is examined using a panel of myeloma cell lines engrafted in severe combined immunodeficient (SCID) mice. The 3 cell lines are infected with a lentivirus-containing luciferase. Luciferase-expressing myeloma cells can be traced in live animals using the Xenogen IVIS 200 luminescence imaging system. Six to 8 weeks old SCID mice are subcutaneously injected with 10^7 myeloma cells. Tumor growth in live animals is monitored by measuring circulating level of monoclonal human immunoglobulins (hIg) in mice sera using ELISA (Yaccoby et al., 1998; Yang et al., 2002) and through imaging of tumor cells luminescence intensity. The tumor growth is detected within one week by ELISA and within 1-3 weeks by imaging.
Upon establishment of myeloma growth as determined by both methods, mice are randomly divided into 3 groups; one control and 2 treated with different doses of 9-(Dimethylaminoethoxy)-ellipticine (8 mice/group for each cell line). Mice are implanted with Alzet osmotic pumps delivering 0.25 μl of drug solution per hour for 28 days. The daily doses are 25 and 50 mg/kg/day. Control animals have pumps loaded with buffer (PBS) only. At the experiments' end, mice are subjected to imaging analysis, bled and sacrificed. […]

In general, IC50 refers to the point on the concentration scale where inhibition reaches its midpoint. For `Cc1c2ccncc2c(C)c2c1[nH]c1ccc(OCCN(C)C)cc12` [NSC 338258, ellipticine, 9-dimethyl amino-ethoxy-], the midpoint of inhibition in the experiment on 8226/Dox1V cells (8226/Dox1V, 96 hours), the IC50, lay at 131 nM. Besides, the “resistance of 8226/Dox1V versus parental RPMI 8226” value in the experiment with 8226/Dox1V cells (ratio of IC50, 96 hours) is “no significant resistance”. The “activity against non-myeloma cell lines” value in experiment [1] was “effective against non-myeloma cell lines”. For the same compound, the “inhibition of myeloma cell growth in vivo” value in experiment [2] was “effectively inhibits myeloma cell growth in vivo”.

Source of the values: patent US20070027175A1, “Antineoplastic activities of ellipticine and its derivatives” (priority 2005, published 2007).
